The conditions of this data set: 298.15 K; 101.33 kPa; Liquid; Vibrating tube method.

± gives the expanded uncertainty stated by the source.

As a reminder, the mass density is the mass of a sample divided by its volume.

As to `CCCCCCCCCC` [decane], the mass density came out at 726.347 ± 0.24 kg/m3. As for `CCCCCCCCCCCC` [dodecane], the mass density is reported as 741.523 ± 0.58 kg/m3.

In the case of `CCCCCCCCCCCCCCCC` [hexadecane], the mass density is 770.221 ± 0.24 kg/m3. As to `CC(=O)c1ccccc1` [acetophenone], the mass density came to 1023.05 ± 0.25 kg/m3. With `CCCCCCCCCCCCCC` [tetradecane], the mass density is recorded as 759.275 ± 0.24 kg/m3.

Source of the values: the NIST ThermoML archive (doi:10.1016/j.fluid.2015.01.026).
